Experimental data as given in patent publication US20220331298A1, “TREATMENT OF FRAGILE X SYNDROME WITH IBUDILAST IN COMBINATION WITH METFORMIN, CANNBIDIOL, SERTRALINE OR QUERCETIN” (priority 2019, published 2022).

Assays:
Type in all cases: in vivo
[1] = tested on: Fmr1 KO2 mice; experiment: Behavioral testing (all behavioural tests together)
Excerpt: (§1) Fmr1 knockout 2 (Fmr1 KO2) mice were generated by deletion of the promoter and first exon of Fmr1. The Fmr1 KO2 it is both, protein and mRNA null. In this study we used Fmr1 KO2 and wild-type (WT) littermates generated on a C57BL/6J background and repeatedly backcrossed onto a C57BL/6J background for more than eight generations.
(§2) There were five treatment groups per compound in the study with 10 male mice used per treatment group (all at 8 weeks of age): Group 1: wild-type littermate mice treated with vehicle (WT-Veh), Group 2: Fmr1 KO2 mice treated with vehicle (KO-Veh), Group 3: Fmr1 KO2 mice treated with ibudilast (KO-ibudilast); Group 4: Fmr1 KO2 mice treated with compound A (KO-[compound A]); Group 5: Fmr1 KO2 mice treated with ibudilast and compound A (KO-ibu/[compound A].
For experiments, all mice were tested once in the same apparatus. Prior to testing, mice were placed in the apparatus for some minutes before the experiment. The apparatus was cleaned with moist and dry tissues before testing each mouse. The aim was to create a low but constant background mouse odor for all experimental subjects. Testers were blind to the genotype and treatment during all testing and data analysis. We assessed weight loss, fur loss, walking, eyes open, eye discharges and general behavior.
(§3) Data were analyzed by one-way ANOVA with a Dunnett's multiple comparison post hoc test in which WT Vehicle group was used as reference and compared with all the other groups

[2] = tested on: Fmr1 KO2 mice; experiment: Nesting
Excerpt: (§4) The Fmr1 KO2 it is both, protein and mRNA null. In this study we used Fmr1 KO2 and wild-type (WT) littermates generated on a C57BL/6J background and repeatedly backcrossed onto a C57BL/6J background for more than eight generations. There were five treatment groups per compound in the study with 10 male mice used per treatment group (all at 8 weeks of age): Group 1: wild-type littermate mice treated with vehicle (WT-Veh), Group 2: Fmr1 KO2 mice treated with vehicle (KO-Veh), Group 3: Fmr1 KO2 mice treated with ibudilast (KO-ibudilast); Group 4: Fmr1 KO2 mice treated with compound A (KO-[compound A]); Group 5: Fmr1 KO2 mice treated with ibudilast and compound A (KO-ibu/[compound A]. For experiments, all mice were tested once in the same apparatus. Prior to testing, mice were placed in the apparatus for some minutes before the experiment. The apparatus was cleaned with moist and dry tissues before testing each mouse. The aim was to create a low but constant background mouse odor for all experimental subjects. Testers were blind to the genotype and treatment during all testing and data analysis. We assessed weight loss, fur loss, walking, eyes open, eye discharges and general behavior. […] Mice were placed individually into the nesting cages 1 hr. before the dark phase, and the results were assessed the next morning. Nest building was scored on a 5 point scale. […]

[3] = tested on: Fmr1 KO2 mice; experiment: Open field (hyperactivity)
Excerpt: as §1, §2
(§5) For experiments, all mice were tested once in the same apparatus. […] We assessed weight loss, fur loss, walking, eyes open, eye discharges and general behavior.
The open-field apparatus was used to test hyperactivity. […] The number of squares entered by the whole body (locomotor activity) was counted. The movement of the mouse around the field was recorded with a video tracking device for 3 min (version NT4.0, Viewpoint).
as §3

[4] = tested on: Fmr1 KO2 mice; experiment: Fear conditioning
Excerpt: as §4, with “The dependent measure used in contextual fear conditioning” for “Mice were placed individually into the nesting cages 1 hr. before the dark phase, and the results were assessed the next morning. Nest building”, “was” for “was scored on”, “freezing response following a pairing of an unconditioned stimulus (foot shock), with a conditioned stimulus, a particular context.” for “5 point scale.”

[5] = tested on: Fmr1 KO2 mice; experiment: Social interaction (three-chambered sociability task)
Excerpt: as §1, §2, §5
In the three-chambered sociability task, a subject mouse was evaluated for its exploration of a novel social stimulus (novel mouse). […] The time spent exploring the novel mice was scored as exploration ratio.
as §3

In the case of `C=C(C)[C@@H]1CCC(C)=C[C@H]1c1c(O)cc(CCCCC)cc1O` [cannabidiol], the “effect of the amount given alone in the behavioural tests” value (“effect of the amount given alone” for short) ([1]; cannabidiol alone 5 mg/kg, FIG. 5) is reported as “ineffective”.

For `CC(C)C(=O)c1c(C(C)C)nn2ccccc12` [ibudilast, 2-methyl-1-(2-propan-2-ylpyrazolo[1,5-a]pyridin-3-yl)propan-1-one], the nesting rescue ([2]; ibudilast 3 mg/kg, FIG. 1) was “inactive”, the nesting rescue ([2]; ibudilast 12 mg/kg, FIG. 2) was “fully rescued” and the “open field (hyperactivity) rescue” value ([3]; ibudilast 3 mg/kg, FIG. 1) was “inactive”. For the same molecule, the “open field (hyperactivity) rescue” value ([3]; ibudilast 12 mg/kg, FIG. 2) was “fully rescued”, the “effect of the amount given alone” value ([1]; ibudilast alone 3 mg/kg) was “ineffective” and the fear conditioning rescue ([4]; ibudilast 3 mg/kg, FIG. 1) was “partially rescued”. For the same molecule, the fear conditioning rescue ([4]; ibudilast 12 mg/kg, FIG. 2) was “fully rescued”, the sociability rescue ([5]; ibudilast 3 mg/kg, FIG. 1) was “inactive” and the sociability rescue ([5]; ibudilast 12 mg/kg, FIG. 2) was “fully rescued”.

For `CN(C)C(=N)N=C(N)N` [metformin], the “effect of the amount given alone” value ([1]; metformin alone 25 mg/kg, FIG. 4) was “ineffective”.

With `O=c1c(O)c(-c2ccc(O)c(O)c2)oc2cc(O)cc(O)c12` [quercetin] the “effect of the amount given alone” value ([1]; quercetin alone 5 mg/kg, FIG. 6) was “ineffective”.

With `CN[C@H]1CC[C@@H](c2ccc(Cl)c(Cl)c2)c2ccccc21` [sertraline] the “effect of the amount given alone” value ([1]; sertraline alone 1 mg/kg, FIG. 3) was “ineffective”.
